These results are taken from PMC12109412.

The series can be described thus: Single-molecule FRET cyclization (looping) of surface-immobilised 83 bp duplex with complementary 10-nt 5' overhangs; noncovalent ring closure by sticky-end hybridisation triggered by 1 M NaCl (no ligase). As to conditions: the molecule shown is the open-chain precursor, water, 50 mM Tris-HCl, 3 mM Trolox, glucose oxidase/catalase oxygen scavenger, other.
Regarding “DNA 5'-Cy5-acggattctgtgaaacggtggaggtgaggaT(biotin)agtcatgggtcaattagaagtcataggagaagtattaagggagtctatattgaggtactagc-3' / DNA 5'-Cy3-cagaatccgtgctagtacctcaatatagactcccttaatacttctcctatgacttctaattgacccatgactatcctcacctccaccgtttca-3'”, the ring closure, halflife is 31.5 min.

Substance “DNA 5'-Cy5-agagaaagaggcaaaaggggacggaagggaT(biotin)ggagccagaggagggggtgacagttgagtctcagccacaggtgaaggtggagccactggagg-3' / RNA 5'-Cy3-cucuuucucuccuccaguggcuccaccuucaccuguggcugagacucaacugucacccccuccucuggcuccaucccuuccguccccuuuugc-3'” came in with a ring closure, halflife of 26.1 min.

In turn, “DNA 5'-Cy5-acggattctgtgaaacggtggaggtgaggaT(biotin)agtcatgggtcaattagaagtcataggagaagtattaagggagtctatattgaggtactagc-3' / RNA 5'-Cy3-cagaauccgugcuaguaccucaauauagacucccuuaauacuucuccuaugacuucuaauugacccaugacuauccucaccuccaccguuuca-3'” yielded a ring closure, halflife of 20.4 min.

As for “DNA 5'-Cy5-tccagaggcttcatctccggctccactggcT(biotin)ccatcgcctccgtccctggctccatcattgccatctgtcccttttcttttttcctcttcttc-3' / RNA 5'-Cy3-agccucuggagaagaagaggaaaaaagaaaagggacagauggcaaugauggagccagggacggaggcgauggagccaguggagccggagauga-3'”, the ring closure, halflife came out at 10.3 min.

In turn, “DNA 5'-Cy5-cctccagtggctccaccttcacctgtggcT(biotin)gagactcaactgtcaccccctcctctggctccatcccttccgtccccttttgcctctttctct-3' / RNA 5'-Cy3-ccacuggaggagagaaagaggcaaaaggggacggaagggauggagccagaggagggggugacaguugagucucagccacaggugaagguggag-3'” registered a ring closure, halflife of 10.8 min.

Substance “DNA 5'-Cy5-gaagaagaggaaaaaagaaaagggacagaT(biotin)ggcaatgatggagccagggacggaggcgatggagccagtggagccggagatgaagcctctgga-3' / RNA 5'-Cy3-ccucuucuucuccagaggcuucaucuccggcuccacuggcuccaucgccuccgucccuggcuccaucauugccaucugucccuuuucuuuuuu-3'” returned a ring closure, halflife of 21.7 min.
